This note sets out measurements from patent US20220071880A1, “METHODS FOR TREATING CUTANEOUS AGING” (Applied Therapeutics, Inc., priority 2019, published 2022).

Assay type in all cases: cell-based
Assay [1] concerns cultured human keritinocytes. Kind of assay: Senescence-associated beta-galactosidase (SA-βgal) expression in H2O2-exposed cultured keratinocytes, cytochemical approach. The note with it: human keratinocytes exposed to H2O2; Compound A at 0.18 nM vs vehicle control. As to the method: Senescence-associated beta-galactosidase (SA-βgal) is a well-known biomarker of senescent cells in culture and in vivo. Debacq-Chainiaux et al., Nature Protocols 4, 1798-1806 (2009). In additional studies the cultured human keritinocytes that were exposed to H2O2 in the presence of Compound A (at 0.18 nM concentration) or vehicle control were analyzed for expression of SA-βgal using a cytochemical approach.

The subject of assay [2] is Cultured human skin cells (keratinocytes). Kind of assay: Mitochondrial oxidative stress by Mitosox staining in H2O2-exposed cultured keratinocytes. The method, then: FIGS. 2A and 2B are fluorescence images of cultured human skin (keratinocytes) that were exposed to H2O2 to cause oxidative stress. The cells were analyzied for mitochondrial stress by staining with Mitosox. FIG. 2A depicts the skin cell damage in the presence of H2O2 as assessed by Mitosox staining.
(§1) Cultured human skin cells (keratinocytes) were exposed to H2O2, which causes oxidative damage to simulate the aging process, in the presence of Compound A (at 0.18 nM concentration) or vehicle control. The cultured cells were then assessed for cytosolic reactive oxygen species via Dihydroethidium (DHE) staining (FIG. 1A and FIG. 1B) and for mitochondrial stress via Mitosox™ (a fluorgenic dye targeted to mitochondria in live cells and readily oxidized by superoxide to produce fluorescence, ThermoFisher Scientific) staining (FIG. 2A and FIG. 2B).

Assay [3] has the same test system. Kind of assay: Cytosolic reactive oxygen species by dihydroethidium (DHE) staining in H2O2-exposed cultured keratinocytes.
Source text: FIGS. 1A and 1B are fluorescence images of cultured human skin (keratinocytes) that were exposed to H2O2 to cause oxidative stress. The cells were analyzied for cytosolic reactive oxygen species by staining with dihydroethidium (DHE). FIG. 1A depicts the skin cell damage in the presence of H2O2 as assessed by DHE staining, and the presence of cytosolic reactive oxygen species is shown by fluorescence.
as §1

The mark [4] stands for this setting: human keratinocytes exposed to H2O2, Compound A at 0.18 nM vs vehicle control.
Where [5] appears, read: same cultured human keratinocyte system, concentration not given.

“Also recorded” adds a separate entry of the source.

With `O=C(O)Cc1nn(Cc2nc3cc(C(F)(F)F)ccc3s2)c(=O)c2nccnc12` [Compound A], the “H2O2-induced SA-βgal expression” value in assay [1] is “inhibited H2O2-induced SA-βgal”. For the same molecule, in assay [2] (setting [4]), the “H2O2-induced mitochondrial oxidative stress (Mitosox fluorescence)” value is “reduced Mitisox fluorescence; also recorded: reduced mitochondrial oxidative stress”. Besides, the “H2O2-induced cytosolic reactive oxygen species formation (DHE fluorescence)” value in assay [3] (setting [4]) is “attenuated DHE fluorescence; also recorded: attenuated H2O2-induced cytosolic reactive oxygen species formation”.

As for `O=C(O)Cc1nn(Cc2nc3cc(C(F)(F)F)ccc3s2)c(=O)c2cscc12` [Compound B], the “H2O2-induced mitochondrial oxidative stress” value in assay [2] (setting [5]) was “inhibited H2O2-induced cytosolic reactive oxygen species formation and mitochondrial oxidative stress”. In addition, the “H2O2-induced cytosolic reactive oxygen species formation” value in assay [3] (setting [5]) was “inhibited H2O2-induced cytosolic reactive oxygen species formation”.
